Data on 24 compounds can be found in patent US9611248B2, “Chemical compounds” (Syngenta Participations AG, priority 2013, dated 2017).

In the first assay the test system is a variety of test species. The assay is described as follows: Post-emergence herbicidal activity. In kind it is in vivo. More on the design: key to ABUTH (Abutilon theophrasti) damage score / AMARE (Amaranthus retroflexus) damage score / ALOMY (Alopecurus myosuroides) damage score / ECHCG (Echinochloa crus-galli) damage score / ZEAMX (Zea mays) damage score / SOLNI (Solanum nigrum) damage score: 0 = no damage to plant, 5 = total damage to plant. The conditions noted are these: rate 250 g/ha, evaluated after 13 days. An outline of the steps:
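Plants grown for 8 days in pots were sprayed post-emergence with compound in acetone/water (50:50) containing 0.5% Tween 20. They were kept in a glasshouse at 24/16 °C day/night, 14 h light, 65% humidity, watered twice daily. Damage was scored after 13 days (0 none to 5 total).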
For `C=C(C)COc1cnc(N2C(=O)C(C)=C(OC)C2O)cc1C(F)(F)F` (stereo not drawn) [AD77], the “ABUTH (Abutilon theophrasti) damage score” value (“ABUTH” for short) was 5, the “ALOMY (Alopecurus myosuroides) damage score” value (“ALOMY” for short) turned out to be 3, the “AMARE (Amaranthus retroflexus) damage score” value (shortened to “AMARE”) is on record as 5 and the “ECHCG (Echinochloa crus-galli) damage score” value (“ECHCG” below) was determined as 1. Moreover, the “SETFA (Setaria faberi) damage score” value was 4 and the “ZEAMX (Zea mays) damage score” value came to 0.
With `COC1=C(C)C(=O)N(c2cc(C(F)(F)F)c(OCCOCc3ccccc3)cn2)C1O` (stereo not drawn) [AD81], the “ABUTH” value is 5, the “ALOMY” value came out at 2, the “AMARE” value is reported as 5 and the “ECHCG” value is reported as 2. Moreover, the “SETFA (Setaria faberi) damage score” value stood at 3 and the “ZEAMX (Zea mays) damage score” value worked out at 1.
With `COC1=C(C)C(=O)N(c2cc(C(F)(F)F)c(OCCc3ccccc3)cn2)C1O` (stereo not drawn) [AD85], the “ABUTH” value came to 5, the “ALOMY” value was determined as 2, the “AMARE” value is 5 and the “ECHCG” value worked out at 2. For the same compound, the “SETFA (Setaria faberi) damage score” value was found to be 4 and the “ZEAMX (Zea mays) damage score” value is reported as 1.
On to `COC1=C(C)C(=O)N(c2cc(C(F)(F)F)c(OCc3ccco3)cn2)C1O` (stereo not drawn) [AD86], for which the “ABUTH” value came to 4, the “ALOMY” value is 2, the “AMARE” value worked out at 5 and the “ECHCG” value is recorded as 1. Also, the “SETFA (Setaria faberi) damage score” value was found to be 3 and the “ZEAMX (Zea mays) damage score” value was determined as 0.
As to `COC1=C(C)C(=O)N(c2cc(C(F)(F)F)c(OCCc3ccsc3)cn2)C1O` (stereo not drawn) [AD87], the “ABUTH” value was determined as 4, the “ALOMY” value was found to be 3, the “AMARE” value was 5 and the “ECHCG” value worked out at 2. Also, the “SETFA (Setaria faberi) damage score” value was 3 and the “ZEAMX (Zea mays) damage score” value is listed as 1.

The assay is the same for the next values; noted with them: rate 1000 g/ha, evaluated after 13 days.
Consider `CCCCOc1cnc(N2C(=O)C(C)=C(OC)C2O)cc1C(F)(F)F` (stereo not drawn) [AD78], for which the “ABUTH” value came to 4, the “ALOMY” value stood at 3, the “AMARE” value was found to be 5 and the “ECHCG” value came to 5. For the same compound, the “SETFA (Setaria faberi) damage score” value turned out to be 5 and the “ZEAMX (Zea mays) damage score” value came out at 2.
For the compound `COC1=C(C)C(=O)N(c2cc(C(F)(F)F)c(OCCCF)cn2)C1O` (stereo not drawn) [AD79], the “ABUTH” value was found to be 5, the “ALOMY” value was 5, the “AMARE” value is 5 and the “ECHCG” value came to 5. For the same compound, the “SETFA (Setaria faberi) damage score” value came to 5 and the “ZEAMX (Zea mays) damage score” value is reported as 2.
Consider `COC1=C(C)C(=O)N(c2cc(C(F)(F)F)c(OCCOC(C)(C)C)cn2)C1O` (stereo not drawn) [AD80], for which the “ABUTH” value is listed as 4, the “ALOMY” value stood at 3, the “AMARE” value came to 5 and the “ECHCG” value is on record as 4. For the same compound, the “SETFA (Setaria faberi) damage score” value worked out at 5 and the “ZEAMX (Zea mays) damage score” value is on record as 1.
Regarding `COC1=C(C)C(=O)N(c2cc(C(F)(F)F)c(OCc3ccccc3)cn2)C1O` (stereo not drawn) [AD82], the “ABUTH” value amounted to 4, the “ALOMY” value amounted to 2, the “AMARE” value stood at 5 and the “ECHCG” value was found to be 3. Further, the “SETFA (Setaria faberi) damage score” value is listed as 5 and the “ZEAMX (Zea mays) damage score” value is recorded as 1.
With `COCCCOc1cnc(N2C(=O)C(C)=C(OC)C2O)cc1C(F)(F)F` (stereo not drawn) [AD83], the “ABUTH” value came out at 5, the “ALOMY” value is given as 4, the “AMARE” value is listed as 5 and the “ECHCG” value worked out at 5. Also, the “SETFA (Setaria faberi) damage score” value was 5 and the “ZEAMX (Zea mays) damage score” value is 1.
Consider `COC1=C(C)C(=O)N(c2cc(C(F)(F)F)c(OCCCc3ccccc3)cn2)C1O` (stereo not drawn) [AD84], for which the “ABUTH” value is 2, the “ALOMY” value turned out to be 1, the “AMARE” value was 5 and the “ECHCG” value is recorded as 2. Further, the “SETFA (Setaria faberi) damage score” value worked out at 4 and the “ZEAMX (Zea mays) damage score” value worked out at 1.
In the case of `COC1=C(C)C(=O)N(c2cc(C(F)(F)F)c(Oc3ccccc3)cn2)C1O` (stereo not drawn) [AD88], the “ABUTH” value is recorded as 5, the “ALOMY” value amounted to 3, the “AMARE” value is listed as 5 and the “ECHCG” value is reported as 4. The “SETFA (Setaria faberi) damage score” value was determined as 5 and the “ZEAMX (Zea mays) damage score” value is 1.
As for `COC1=C(C)C(=O)N(c2cc(C(C)C)c(C(=O)NC(C)(C)C)cn2)C1O` (stereo not drawn) [AD89], the “ABUTH” value worked out at 5, the “ALOMY” value worked out at 5, the “AMARE” value stood at 5 and the “ECHCG” value worked out at 5. For the same compound, the “SETFA (Setaria faberi) damage score” value came out at 5 and the “ZEAMX (Zea mays) damage score” value is reported as 3.
For the compound `COC1=C(C)C(=O)N(c2cc(C)c(NC(=O)C(C)(C)C)cn2)C1O` (stereo not drawn) [AD90], the “ABUTH” value is reported as 5, the “ALOMY” value is reported as 5, the “AMARE” value was determined as 5 and the “ECHCG” value turned out to be 5. For the same compound, the “SETFA (Setaria faberi) damage score” value stood at 5 and the “ZEAMX (Zea mays) damage score” value is on record as 2.
As for `COC1=C(C)C(=O)N(c2cc(C)c(S(=O)(=O)N3CCOCC3)cn2)C1O` (stereo not drawn) [AD91], the “ABUTH” value is given as 0, the “ALOMY” value is 0, the “AMARE” value is on record as 2 and the “ECHCG” value stood at 0. The “SETFA (Setaria faberi) damage score” value is on record as 0 and the “ZEAMX (Zea mays) damage score” value came to 2.
As to `CCN(CC)C(=O)c1cnc(N2C(=O)C(C)=C(OC)C2O)cc1C(F)(F)F` (stereo not drawn) [AD92], the “ABUTH” value was 5, the “ALOMY” value is listed as 4, the “AMARE” value is on record as 4 and the “ECHCG” value is on record as 5. In addition, the “SETFA (Setaria faberi) damage score” value is 4 and the “ZEAMX (Zea mays) damage score” value is 3.
Take `COC1=C(C)C(=O)N(c2cc(C(F)(F)F)c(SCc3ccccc3)cn2)C1O` (stereo not drawn) [AD93]: the “ABUTH” value is listed as 3, the “ALOMY” value is on record as 2, the “AMARE” value amounted to 4 and the “ECHCG” value was 3. Besides, the “SETFA (Setaria faberi) damage score” value was 4 and the “ZEAMX (Zea mays) damage score” value is given as 0.
On to `COC1=C(C)C(=O)N(c2cc(C)c(S(=O)(=O)NC(C)(C)C)cn2)C1O` (stereo not drawn) [AD94], for which the “ABUTH” value was 1, the “ALOMY” value was determined as 1, the “AMARE” value was determined as 0 and the “ECHCG” value was 1. The “SETFA (Setaria faberi) damage score” value was 1 and the “ZEAMX (Zea mays) damage score” value is 0.
In the case of `COC1=C(C)C(=O)N(c2cc(C)c(S(=O)(=O)NC(C)C)cn2)C1O` (stereo not drawn) [AD95], the “ABUTH” value is reported as 5, the “ALOMY” value came out at 4, the “AMARE” value turned out to be 5 and the “ECHCG” value is reported as 4. For the same compound, the “SETFA (Setaria faberi) damage score” value came to 5 and the “ZEAMX (Zea mays) damage score” value is reported as 0.
`CCCCNS(=O)(=O)c1cnc(N2C(=O)C(C)=C(OC)C2O)cc1C` (stereo not drawn) [AD96]: the “ABUTH” value is reported as 3, the “ALOMY” value came out at 4, the “AMARE” value is 5 and the “ECHCG” value is 4. The “SETFA (Setaria faberi) damage score” value was 5 and the “ZEAMX (Zea mays) damage score” value came to 0.
Regarding `COC1=C(C)C(=O)N(c2cc(C)c(S(=O)(=O)N3CCCCC3)cn2)C1O` (stereo not drawn) [AD97], the “ABUTH” value turned out to be 0, the “ALOMY” value worked out at 0, the “AMARE” value was determined as 0 and the “ECHCG” value was 0. In addition, the “SETFA (Setaria faberi) damage score” value was found to be 0 and the “ZEAMX (Zea mays) damage score” value is reported as 0.
With `COC1=C(C)C(=O)N(c2cc(C(F)(F)F)c(C(=O)NCc3ccccc3)cn2)C1O` (stereo not drawn) [AD98], the “ABUTH” value turned out to be 5, the “ALOMY” value is reported as 4, the “AMARE” value is recorded as 5 and the “ECHCG” value was 4. Also, the “SETFA (Setaria faberi) damage score” value turned out to be 4 and the “ZEAMX (Zea mays) damage score” value was found to be 1.
As for `CCc1cc(N2C(=O)C(C)=C(OC)C2O)ncc1-c1cccc(C#N)c1` (stereo not drawn) [AD99], the “ABUTH” value was 5, the “ALOMY” value came to 1, the “AMARE” value turned out to be 5 and the “ECHCG” value was 5. The “SETFA (Setaria faberi) damage score” value came to 4 and the “ZEAMX (Zea mays) damage score” value worked out at 1.
As to `CCc1cc(N2C(=O)C(C)=C(OC)C2O)ncc1-c1ccccc1OC` (stereo not drawn) [AD100], the “ABUTH” value is recorded as 4, the “ALOMY” value is 0, the “AMARE” value came to 5 and the “ECHCG” value was 0. The “SETFA (Setaria faberi) damage score” value was determined as 4 and the “ZEAMX (Zea mays) damage score” value is 1.
